Usually Vmax stands for the rate approached at saturating substrate.

Here are results for six compounds from article PMC9939733 (The Journal of Biological Chemistry, 2023).

Common to all, as to format: biochemical
In assay [1] the target is T1, R132H IDH1 (Homo sapiens, UniProt O75874, R132H). As to the kind of experiment: Absorbance assay, variant activity in the presence of equimolar 2OG (inhibition screen). More on the design: made in house; host or cells: Escherichia coli BL21(DE3) pLyS. The following applies: […] 2OG and […] test compound, 0.03 μM R132H IDH1, 50 μM NADPH. A digest of the protocol: (§1)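 Compound was added to all wells at once with a multichannel pipettor. Reagent was then dispensed to start the reaction. Every condition was done in four technical replicates.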
Target sequence in this assay (O75874 whole entry R132H): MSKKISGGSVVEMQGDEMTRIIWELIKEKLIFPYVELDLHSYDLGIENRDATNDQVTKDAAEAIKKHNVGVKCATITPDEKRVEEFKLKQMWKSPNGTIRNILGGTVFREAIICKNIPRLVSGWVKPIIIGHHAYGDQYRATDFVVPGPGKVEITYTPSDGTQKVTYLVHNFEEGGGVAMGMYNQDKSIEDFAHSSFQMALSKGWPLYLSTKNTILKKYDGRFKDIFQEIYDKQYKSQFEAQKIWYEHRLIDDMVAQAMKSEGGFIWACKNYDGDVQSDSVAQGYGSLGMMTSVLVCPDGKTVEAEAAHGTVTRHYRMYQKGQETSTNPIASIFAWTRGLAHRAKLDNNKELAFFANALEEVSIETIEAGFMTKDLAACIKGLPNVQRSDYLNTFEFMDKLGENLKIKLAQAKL

Assay [2] addresses T2, WT IDH1 (Homo sapiens, UniProt O75874).
T2 construct: made in house; host or cells: Escherichia coli BL21(DE3) pLyS
As to the kind of experiment: Absorbance assay, WT activity in the presence of equimolar DL-isocitrate (inhibition). The following applies: […] isocitrate and […] test compound, 75 μM NADP+, 2.0 nM WT IDH1. An outline of the steps: as §1

Assay [3] addresses T3, WT IDH2 (Homo sapiens, UniProt P48735).
T3 construct: made in house; host or cells: Sf21 insect cells (cell pellets prepared at Evotec)
T3 sequence (P48735 40-452): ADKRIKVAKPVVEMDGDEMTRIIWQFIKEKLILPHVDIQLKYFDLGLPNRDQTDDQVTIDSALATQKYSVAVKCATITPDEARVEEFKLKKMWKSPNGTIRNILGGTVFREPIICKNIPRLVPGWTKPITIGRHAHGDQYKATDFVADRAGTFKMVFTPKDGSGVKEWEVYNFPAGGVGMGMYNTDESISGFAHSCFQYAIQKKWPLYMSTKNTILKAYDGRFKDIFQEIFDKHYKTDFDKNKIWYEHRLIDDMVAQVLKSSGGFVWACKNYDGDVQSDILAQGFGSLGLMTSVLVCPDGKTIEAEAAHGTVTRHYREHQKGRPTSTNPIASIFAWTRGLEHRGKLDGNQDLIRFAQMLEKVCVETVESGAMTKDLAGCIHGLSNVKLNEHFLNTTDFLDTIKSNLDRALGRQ
Described as above. The following applies: […] isocitrate and […] test compound, 75 μM NADP+, 2.0 nM WT IDH2. An outline of the steps: as §1

In assay [4] the target is T4, R172K IDH2 (Homo sapiens, UniProt P48735, R172K).
T4 construct: made in house; host or cells: Sf21 insect cells (cell pellets prepared at Evotec)
T4 sequence (P48735 40-452 R172K): T3 sequence (P48735 40-452) with R133K
In words: Absorbance assay, variant activity in the presence of equimolar 2OG (inhibition screen). The following applies: 1.0 mM 2OG and 1.0 mM test compound, 0.03 μM R172K IDH2, 50 μM NADPH. An outline of the steps:
as §1

Assay [5] addresses T5, R140Q IDH2 (Homo sapiens, UniProt P48735, R140Q).
T5 construct: made in house; host or cells: Sf21 insect cells (cell pellets prepared at Evotec)
T5 sequence (P48735 40-452 R140Q): T3 sequence (P48735 40-452) with R101Q
The description is as above. The following applies: 6.0 mM 2OG and 6.0 mM test compound, 0.03 μM R140Q IDH2, 50 μM NADPH. A digest of the protocol:
as §1

For assay [6], the target named is T2, WT IDH1. As to the kind of experiment: Absorbance assay, substrate activity in the absence of DL-isocitrate. The following applies: no DL-isocitrate; […] test compound, 75 μM NADP+, 2.0 nM WT IDH1; compared to DL-isocitrate. A digest of the protocol:
as §1

Assay [7] concerns the target T3, WT IDH2. The assay is described as above. The following applies: no DL-isocitrate; […] test compound, 75 μM NADP+, 2.0 nM WT IDH2; compared to DL-isocitrate. A digest of the protocol: as §1
For assay [8], the target named is T4, R172K IDH2. In words: Steady-state kinetics, absorbance assay. The following applies: 0.03 μM enzyme, 50 μM NADPH, 20 mM MgCl2, pH 8.0. Here is the method:
(§2) Compounds were dispensed using a CyBio SDW-CW CyBi-Well Simultaneous Pipettor and assay started using a ThermoFisher Multidrop Combi reagent dispenser.
(§3) Reactions were performed as technical duplicates, and all assays were carried out in two independent duplicates.

Assay [9] deals with T1, R132H IDH1. As to the kind of experiment: Steady-state kinetics, absorbance assay. More on the design: made in house; host or cells: Escherichia coli BL21(DE3) pLyS. The following applies: for Kmapp / kcatapp: 0.03 μM enzyme, 50 μM NADPH, 20 mM MgCl2, pH 8.0. As for the experimental part:
as §2, §3
Target sequence in this assay (O75874 whole entry R132H): as the sequence (O75874 whole entry R132H) above

The target in assay [10] is T1, R132H IDH1. As to the kind of experiment: Electrochemical assay (FNR+R132H IDH1)@ITO/PGE electrode. More on the design: made in house; host or cells: Escherichia coli BL21(DE3) pLyS (IDH1 R132H). The following applies: for predicted change in catalytic rate: simulated from experimental Km and vmax, if 500 μM substrate consumed at the electrode-solution interface per scan. As for the experimental part: Assays were carried out in an anaerobic glovebox (Glove Box Technology) under a nitrogen atmosphere. A potentiostat (Autolab PGSTAT 10) running on Nova software was used for all experiments. As previously described, the electrochemical apparatus included an Autolab electrode rotator, a two-chamber custom-made glass electrochemical cell, and custom-made rotating pyrolytic graphite edge (PGE) electrodes ([55]). Platinum wire was used as the counter electrode; it was placed in the working electrode chamber. Electrode potentials (E) were measured against a saturated calomel electrode and converted to the standard hydrogen electrode using a temperature-dependent equation (at 25 °C: ESHE = ESCE + 0.2412 V) ([55]). Nanoporous indium tin oxide (ITO) electrodes were made by electrophoretically depositing ITO nanoparticles (<50 nm, Sigma-Aldrich) onto PGE electrodes (ITO/PGE) as previously described ([55]). […] In all experiments, 0.85 nmol (homodimer basis) of IDH1 R132H was used; the amount of coloaded FNR was adjusted to achieve the desired enzyme loading ratio. Electrodes loaded with enzyme were thoroughly rinsed using buffer solution before each experiment to remove excess enzyme. […]
and controlled electrochemically under steady-state conditions (1).
Conditions: 25 °C, mixed buffer (20 […]
mM each MES, TAPS, CHES, pH 8.0), 10 mM MgCl2, 10 µM NADPH, 4 mL cell volume, (FNR+R132H IDH1)@ITO/PGE electrode, electrode area 0.06 cm2, rotated at 1000 rpm, E = –0.513 V vs SHE, enzyme loading ratios (molar): FNR/R132H IDH1; 2.5 (dimer basis).
(1 picture or pasted object on this page, not shown here)
Target sequence in this assay (O75874 2-414 R132H): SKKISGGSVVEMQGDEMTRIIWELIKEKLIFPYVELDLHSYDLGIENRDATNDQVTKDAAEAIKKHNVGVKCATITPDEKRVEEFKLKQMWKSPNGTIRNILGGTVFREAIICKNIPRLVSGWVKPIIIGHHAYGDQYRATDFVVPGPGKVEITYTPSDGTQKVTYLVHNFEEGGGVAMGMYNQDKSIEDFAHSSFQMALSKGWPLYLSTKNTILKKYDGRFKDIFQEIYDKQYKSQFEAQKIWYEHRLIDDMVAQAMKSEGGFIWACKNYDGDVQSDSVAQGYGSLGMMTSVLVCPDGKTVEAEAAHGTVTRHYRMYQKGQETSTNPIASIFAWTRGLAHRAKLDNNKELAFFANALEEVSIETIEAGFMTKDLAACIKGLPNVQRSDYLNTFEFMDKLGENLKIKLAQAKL

The target of assay [11] is T6, R132C/S280F IDH1 (Homo sapiens, UniProt O75874, R132C/S280F).
T6 construct: made in house
As to the kind of experiment: Steady-state kinetics, NADPH turnover assay. As for the experimental part:
independent runs, each composed of technical duplicates (n = 2; mean ± SD); c) R132C/S280F IDH1 assays
monitoring NADPH turnover were performed as reported (3). […]

For assay [12], the target named is T5, R140Q IDH2. As to the kind of experiment: Steady-state kinetics, absorbance assay. The following applies: 0.03 μM enzyme, 50 μM NADPH, 20 mM MgCl2, pH 8.0. Here is the method:
as §2, §3

Each structure is given as a SMILES string. Numbering of substitutions follows the chain as printed. Several values for one entry are separate records, joined by “and”; a condition that tells them apart may be missing. Equal values may be shown once.

T6 sequence (O75874 whole entry R132C/S280F): as the sequence (O75874 whole entry R132H) above, with H132C, S280F counted along it
T2 sequence (O75874 whole entry): as the sequence (O75874 whole entry R132H) above, with H132R counted along it

Consider `CCCC(CC(=O)O)C(=O)C(=O)O` (racemic) [compound 3], for which the “activity [%] (%-substrate conversion after 20 min incubation)” value (“activity [%]” below) in assay [1] is recorded as 294 ± 31%; in [2], 105±5%; in [3], 96±5%; in assay [4] it was 105 ± 6%; in [5] it was 632 ± 68%; in [6], under 10%. In addition, in assay [7], the “activity [%]” value was under 10%. Besides, in assay [8], the kcatapp is about 2.7 s⁻¹.

Consider `CC(CC(=O)C(=O)O)C(=O)O` (single isomer, unassigned) [enantiopure 12], for which the “Vmax (predicted for single enantiomer)” value in [9] (predicted, Fig. 3H simulation) was 9.6 µM/min. The “predicted change in catalytic rate” value in assay [10] is given as −46%.

Turning to `CC(CC(=O)O)C(=O)C(=O)O` (centres unmarked) [compound 1, 3-methyl-2OG], the “activity [%]” value is recorded as 391 ± 20% in assay [1]; 94±1% in [2]; 97±3% in [3]; 151 ± 5% in assay [4]; 107 ± 4% in [5]; under 10% in assay [6]. The “activity [%]” value in [7] is given as under 10%. Also, the Kmapp was 3.7 ± 0.1 mM in [9]; 0.31 ± 0.01 mM in assay [11]; 4.2 ± 0.4 mM in [8]; 2.0 ± 0.8 mM and ~2.0 mM in assay [12]. The kcatapp in assay [9] stood at 6.9 ± 0.4 s⁻¹; in assay [11], 20.2 ± 0.5 s⁻¹; in [8] it was 4.8 ± 0.2 s⁻¹; in [12], 5.4 ± 0.3 s⁻¹.

Consider `CCCCC(CC(=O)O)C(=O)C(=O)O` (centres unmarked) [compound 4, 3-butyl-2OG], for which the “activity [%]” value is 376 ± 21% in assay [1]; 96±1% in assay [2]; 98±2% in assay [3]; 126 ± 3% in [4]; 753 ± 72% in [5]; under 10% in assay [6]. For the same compound, the “activity [%]” value in assay [7] is listed as under 10%. The Kmapp was 5.7 ± 3.3 mM in assay [9]; 0.24 ± 0.01 mM in [11]; 16 ± 5 mM in assay [8]; 3.8 ± 0.8 mM and 3.8 to 7.5 mM in assay [12]. Further, the kcatapp in assay [9] is 9.2 ± 0.4 s⁻¹; in [11], 15 ± 3 s⁻¹; in assay [8] it was 7.8 ± 1.8 s⁻¹ and ~7.8 s⁻¹; in assay [12], 9.7 ± 0.4 s⁻¹.

As for `O=C(O)CC(Cc1ccccc1)C(=O)C(=O)O` (centres unmarked) [compound 7, 3-benzyl-2OG], the “activity [%]” value is reported as 229 ± 21% in assay [1]; 94±1% in assay [2]; 99±1% in [3]; 114 ± 4% in [4]; 91 ± 8% in [5]; under 10% in assay [6]. Besides, the “activity [%]” value in assay [7] is given as under 10%. Also, in assay [12], the Kmapp fell in the range of 3.8 to 7.5 mM.

For the compound `CC(CC(=O)C(=O)O)C(=O)O` (centres unmarked) [compound 12, 4-methyl-2OG], the “activity [%]” value in assay [1] is listed as 161 ± 26%; in assay [2], 107±4%; in assay [3], 100±4%; in assay [4], 112 ± 13%; in [5], 281 ± 4%; in assay [6], under 10%. Also, the “activity [%]” value in [7] is on record as under 10%. The Kmapp in assay [9] came out at 12 mM. Also, in assay [9] (experimental value used for Michaelis-Menten simulation, Fig. 3H), the maximum rate (Vmax) was 9.6 µM/min. Moreover, the “decrease of R132H IDH1 faradaic 'coupled' current during each scan” value in assay [10] (cyclic voltammetry, stationary electrode, 20 μM NADPH, 10 mM MgCl2, pH 8) is −43%. In addition, the “predicted change in catalytic rate” value in assay [10] is given as −22%.
